Reference: patent publication US5776739A, “Process for producing disaccharides and novel disaccharides” (Kyowa Hakko Kogyo Co., Ltd., priority 1919, dated 1998)

Tested on: alkaline phosphatase
Assay: Residual alkaline phosphatase activity after storage as solution at room temperature (Test Example 1)
Type: biochemical, calf
Conditions: overall conclusion from Test Examples 1-4
Procedure: A sample solution (unsupplemented) was prepared by diluting alkaline phosphatase (derived from calf small intestine, Boehringer Mannheim Biochemica) with distilled water. Other sample solutions were prepared by adding, to the above solution, trehalose, maltose, glucosyl (α, 1-1)D-fucose or glucosyl (α, 1-4)L-fucose to the concentration of 50 mM. The sample solutions were allowed to stand at room temperature (25° C.) for 24 hours, and the activity of alkaline phosphatase in each of the sample solutions was determined.
The activity of alkaline phosphatase was determined as follows.
(§1) Each of the sample solutions (10 μl) was incubated at 37° C. in 2.0 ml of the reaction mixture consisting of 1M diethanol-amine buffer (pH 10.2), 0.2 mM magnesium chloride and 5 mM p-nitrophenyl phosphoric acid. Then, the enzyme activity was determined by the amount of p-nitrophenol produced therein, which was culculated on the basis of change in absorbance at 405 nm. The activity of each of the sample solutions immediately after the preparation was defined as 100%, and the residual activity in the stored sample solution was calculated.

Compound | effective as a stabilizer for alkaline phosphatase
OC[C@H]1O[C@H](O[C@H]2O[C@H](CO)[C@@H](O)[C@H](O)[C@H]2O)[C@H](O)[C@@H](O)[C@@H]1O [Trehalose, glucosyl(α,1-1)D-glucose] | effective as a stabilizer for alkaline phosphatase
OC[C@H]1O[C@H](O[C@H]2[C@H](O)[C@@H](O)[C@H](O)O[C@@H]2CO)[C@H](O)[C@@H](O)[C@@H]1O [Maltose, glucosyl(α,1-4)D-glucose] | effective as a stabilizer for alkaline phosphatase
C[C@@H]1OC(O)[C@@H](O)[C@H](O)[C@@H]1O[C@H]1O[C@H](CO)[C@@H](O)[C@H](O)[C@H]1O (stereo partly drawn) [Glucosyl (α, 1-4) L-fucose, glucosyl (α, 1-4)L-fucose] | effective as a stabilizer for alkaline phosphatase
C[C@H]1O[C@H](O[C@H]2O[C@H](CO)[C@@H](O)[C@H](O)[C@H]2O)[C@H](O)[C@@H](O)[C@H]1O [Glucosyl (α, 1-1) D-fucose, glucosyl (α, 1-1)D-fucose] | effective as a stabilizer for alkaline phosphatase

Same assay, conditions: sugar 50 mM; solution, room temperature (25° C.), 24 hours

Compound | Residual activity [%]
OC[C@H]1O[C@H](O[C@H]2O[C@H](CO)[C@@H](O)[C@H](O)[C@H]2O)[C@H](O)[C@@H](O)[C@@H]1O [Trehalose, glucosyl(α,1-1)D-glucose] | 9.4
OC[C@H]1O[C@H](O[C@H]2[C@H](O)[C@@H](O)[C@H](O)O[C@@H]2CO)[C@H](O)[C@@H](O)[C@@H]1O [Maltose, glucosyl(α,1-4)D-glucose] | 3.3
C[C@@H]1OC(O)[C@@H](O)[C@H](O)[C@@H]1O[C@H]1O[C@H](CO)[C@@H](O)[C@H](O)[C@H]1O (stereo partly drawn) [Glucosyl (α, 1-4) L-fucose, glucosyl (α, 1-4)L-fucose] | 93.7
C[C@H]1O[C@H](O[C@H]2O[C@H](CO)[C@@H](O)[C@H](O)[C@H]2O)[C@H](O)[C@@H](O)[C@H]1O [Glucosyl (α, 1-1) D-fucose, glucosyl (α, 1-1)D-fucose] | 21.8

Tested on: alkaline phosphatase
Assay: Residual alkaline phosphatase activity after storage in frozen form (Test Example 2)
Type: biochemical, calf
Conditions: sugar 50 mM; stored frozen at -20° C. for 6 days
Procedure: as §1
(§2) A sample solution (unsupplemented) was prepared by diluting alkaline phosphatase with distilled water. Other sample solutions were prepared by adding, to the above solution, trehalose, maltose, glucosyl (α, 1-1)D-fucose or glucosyl (α, 1-4)L-fucose to the concentration of 50 mM. The sample solutions were stored in frozen form at -20° C. for 6 days. After thawing at room temperature, the activity of alkaline phosphatase in each of the sample solutions was determined in a manner similar to that employed in Test Example 1. The activity of each of the sample solutions immediately after preparation was defined as 100%, and the residual activity in the stored sample solution was calculated.

Compound | Residual activity [%]
OC[C@H]1O[C@H](O[C@H]2O[C@H](CO)[C@@H](O)[C@H](O)[C@H]2O)[C@H](O)[C@@H](O)[C@@H]1O [Trehalose, glucosyl(α,1-1)D-glucose] | 26.4
OC[C@H]1O[C@H](O[C@H]2[C@H](O)[C@@H](O)[C@H](O)O[C@@H]2CO)[C@H](O)[C@@H](O)[C@@H]1O [Maltose, glucosyl(α,1-4)D-glucose] | 20.0
C[C@@H]1OC(O)[C@@H](O)[C@H](O)[C@@H]1O[C@H]1O[C@H](CO)[C@@H](O)[C@H](O)[C@H]1O (stereo partly drawn) [Glucosyl (α, 1-4) L-fucose, glucosyl (α, 1-4)L-fucose] | 76.0
C[C@H]1O[C@H](O[C@H]2O[C@H](CO)[C@@H](O)[C@H](O)[C@H]2O)[C@H](O)[C@@H](O)[C@H]1O [Glucosyl (α, 1-1) D-fucose, glucosyl (α, 1-1)D-fucose] | 36.3

Tested on: alkaline phosphatase
Assay: Residual alkaline phosphatase activity after repeated freezing and thawing (Test Example 3)
Type: biochemical, calf
Conditions: sugar 50 mM; frozen (dry ice/ethanol) and thawed 10 times
Procedure: as §1
as §2, with “mM. Each of the” for “mM. The”, “solutions was” for “solutions were stored in”, “frozen by dry ice/ethanol and thawed” for “frozen form at -20° C. for 6 days. After thawing”, “room temperature repeatedly 10 times in total. The” for “room temperature, the”, “after the” for “after”, “the frozen and thawed” for “the stored”

Compound | Residual activity [%]
OC[C@H]1O[C@H](O[C@H]2O[C@H](CO)[C@@H](O)[C@H](O)[C@H]2O)[C@H](O)[C@@H](O)[C@@H]1O [Trehalose, glucosyl(α,1-1)D-glucose] | 21.6
OC[C@H]1O[C@H](O[C@H]2[C@H](O)[C@@H](O)[C@H](O)O[C@@H]2CO)[C@H](O)[C@@H](O)[C@@H]1O [Maltose, glucosyl(α,1-4)D-glucose] | 16.3
C[C@@H]1OC(O)[C@@H](O)[C@H](O)[C@@H]1O[C@H]1O[C@H](CO)[C@@H](O)[C@H](O)[C@H]1O (stereo partly drawn) [Glucosyl (α, 1-4) L-fucose, glucosyl (α, 1-4)L-fucose] | 106.0
C[C@H]1O[C@H](O[C@H]2O[C@H](CO)[C@@H](O)[C@H](O)[C@H]2O)[C@H](O)[C@@H](O)[C@H]1O [Glucosyl (α, 1-1) D-fucose, glucosyl (α, 1-1)D-fucose] | 65.0

Tested on: alkaline phosphatase
Assay: Residual alkaline phosphatase activity after storage as dried powder (Test Example 4)
Type: biochemical, calf
Conditions: sugar 50 mM; dry powder stored at 50° C. for 24 hours
Procedure: as §1
A sample solution (unsupplemented) was prepared by diluting alkaline phosphatase with distilled water. Other sample solutions were prepared by adding, to the above solution, trehalose, maltose, glucosyl (α, 1-1)D-fucose or glucosyl (α, 1-4)L-fucose to the concentration of 50 mM. Each of the sample solutions was evaporated at room temperature to dryness using a vacuum pump to obtain dry powder, and the dry powder was stored at 50° C. for 24 hours. The activity of alkaline phosphatase in each of the sample solutions was determined in a manner similar to that employed in Test Example 1. The activity of each of the sample solutions immediately after preparation was defined as 100%, and the residual activity in the stored sample solution was calculated.

Compound | Residual activity [%]
OC[C@H]1O[C@H](O[C@H]2O[C@H](CO)[C@@H](O)[C@H](O)[C@H]2O)[C@H](O)[C@@H](O)[C@@H]1O [Trehalose, glucosyl(α,1-1)D-glucose] | 55.0
OC[C@H]1O[C@H](O[C@H]2[C@H](O)[C@@H](O)[C@H](O)O[C@@H]2CO)[C@H](O)[C@@H](O)[C@@H]1O [Maltose, glucosyl(α,1-4)D-glucose] | 41.0
C[C@@H]1OC(O)[C@@H](O)[C@H](O)[C@@H]1O[C@H]1O[C@H](CO)[C@@H](O)[C@H](O)[C@H]1O (stereo partly drawn) [Glucosyl (α, 1-4) L-fucose, glucosyl (α, 1-4)L-fucose] | 83.0
C[C@H]1O[C@H](O[C@H]2O[C@H](CO)[C@@H](O)[C@H](O)[C@H]2O)[C@H](O)[C@@H](O)[C@H]1O [Glucosyl (α, 1-1) D-fucose, glucosyl (α, 1-1)D-fucose] | 62.5

Tested on: not given
Assay: not given
Conditions: C. Colaco et al., Bio/Technology, 10, 1007-1011 (1992); cited from earlier work

Compound | enhance the stability of biopolymers such as enzyme proteins
OC[C@H]1O[C@H](O[C@H]2O[C@H](CO)[C@@H](O)[C@H](O)[C@H]2O)[C@H](O)[C@@H](O)[C@@H]1O [Trehalose, glucosyl(α,1-1)D-glucose] | enhance the stability of biopolymers such as enzyme proteins
